Measurements: patent US8058285B2, “Substituted pyrido [3′, 2′: 4, 5] thieno [3, 2-D] pyrimidines and pyrido [3′, 2′: 4, 5] furo [3, 2-D] pyrimidines used as inhibitors of the PDE-4 and/or the release of TNF-ALPHA” (The Medicines Company (Leipzig) GmbH, priority 2004, dated 2011)
Structures can show the parent of a compound that is named as a salt.

Target: T1, PDE-4A (Homo sapiens, UniProt P27815)
T1 construct: PDE-4A catalytic domain comprising amino acids 342-704; made in house; host or cells: Escherichia coli
T1 sequence (P27815 342-704): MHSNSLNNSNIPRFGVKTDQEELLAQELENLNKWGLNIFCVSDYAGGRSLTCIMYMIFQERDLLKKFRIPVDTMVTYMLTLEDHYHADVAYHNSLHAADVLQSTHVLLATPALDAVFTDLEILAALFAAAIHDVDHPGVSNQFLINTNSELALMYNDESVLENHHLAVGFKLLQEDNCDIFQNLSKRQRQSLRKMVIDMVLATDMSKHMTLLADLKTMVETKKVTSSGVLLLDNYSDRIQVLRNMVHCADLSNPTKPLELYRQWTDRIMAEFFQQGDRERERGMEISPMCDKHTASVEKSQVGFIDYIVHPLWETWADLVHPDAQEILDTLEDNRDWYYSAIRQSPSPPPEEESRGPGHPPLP
Assay: PDE-4A inhibitory assay (SPA)
Type: biochemical
Conditions: not given
Summary of the method: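 Human recombinant PDE-4A catalytic domain (aa 342-704), E. coli-expressed. SPA with 1 μM [^3H]-cAMP substrate in 100 mM Tris-HCl pH 7.5, 5 mM MgCl2, 1% DMSO; 20 min at 22° C. Non-specific activity with 100 μM rolipram subtracted.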

| Structure (SMILES) | IC50 [µM] |
| --- | --- |
| Cc1cc(-c2ccccc2)nc2sc3c(N4CCNCC4)nc(OCCO)nc3c12 [2-(2-Hydroxy-ethoxy)-9-methyl-7-phenyl-4-(piperazin-1-yl)-pyrido[3′,2′:4,5]thieno[3,2-d]pyrimidine] | 0.002 to 0.05 |
| CCOc1nc(N2CCNCC2)c2sc3nc(C)c(Cc4ccc([N+](=O)[O-])cc4)c(C)c3c2n1 [2-Ethoxy-7,9-dimethyl-8-(4-nitro-benzyl)-4-(piperazin-1-yl)-pyrido[3′,2′:4,5]thieno[3,2-d]pyrimidine] | 0.002 to 0.05 |
| CCOc1nc(N2CCNCC2)c2sc3nc(-c4ccc(OC)c(OC)c4)cc(C)c3c2n1 [2-Ethoxy-7-(3,4-dimethoxy-phenyl)-9-methyl-4-(piperazin-1-yl)-pyrido[3′,2′:4,5]thieno[3,2-d]pyrimidine] | 0.002 to 0.05 |
| CCOc1nc(N2CCNCC2)nc2c1sc1nc(-c3ccc(-c4ccc(OC)c(OC)c4)cc3)nc(C)c12 [7-(3′,4′-Dimethoxybiphen-4-yl)-4-ethoxy-9-methyl-2-piperazin-1-yl-thieno[2,3-d:4,5-d′]dipyrimidine] | < 0.002 |
| CCOc1nc(N2CCNCC2)nc2c1sc1nc(-c3ccc(N)cc3)cc(C(F)(F)F)c12 [7-(4-Amino-phenyl)-4-ethoxy-2-piperazin-1-yl-9-trifluoromethyl-pyrido[3′,2′:4,5]thieno[3,2-d]pyrimidine] | 0.002 to 0.05 |
| CCOc1nc(N2CCNCC2)nc2c1sc1nc(-c3ccc(-c4ccccc4)cc3)nc(C)c12 [7-(4-Biphenyl)-4-ethoxy-9-methyl-2-piperazin-1-yl-thieno[2,3-d:4,5-d′]dipyrimidine] | 0.002 to 0.05 |
| CCOc1nc(N2CCNCC2)nc2c1sc1nc(-c3ccc(Br)cc3)cc(CC)c12 [7-(4-Bromo-phenyl)-4-ethoxy-9-ethyl-2-(piperazin-1-yl)-pyrido[3′,2′:4,5]thieno[3,2-d]pyrimidine] | < 0.002 |
| CCOc1nc(N2CCNCC2)nc2c1sc1nc(-c3ccc(Br)cc3)cc(C)c12 [7-(4-Bromo-phenyl)-4-ethoxy-9-methyl-2-(piperazin-1-yl)-pyrido[3′,2′:4,5]thieno[3,2-d]pyrimidine] | 0.002 to 0.05 |
| CCOc1nc(N2CCNCC2)nc2c1sc1nc(-c3ccc(Br)cc3)nc(C)c12 [7-(4-Bromo-phenyl)-4-ethoxy-9-methyl-2-piperazin-1-yl-thieno[2,3-d:4,5-d′]dipyrimidine] | 0.002 to 0.05 |
| CCOc1nc(N2CCNCC2)nc2c1sc1nc(-c3ccc(Cl)cc3)cc(CC)c12 [7-(4-Chloro-phenyl)-9-ethyl-4-ethoxy-2-(piperazin-1-yl)-pyrido[3′,2′:4,5]thieno[3,2-d]pyrimidine] | 0.002 to 0.05 |
| CCOc1nc(N2CCNCC2)nc2c1sc1nc(-c3ccc(C#N)cc3)cc(C(F)(F)F)c12 [7-(4-Cyano-phenyl)-4-ethoxy-2-piperazin-1-yl-9-trifluoromethyl-pyrido[3′,2′:4,5]thieno[3,2-d]pyrimidine] | 0.002 to 0.05 |
| CCCOc1nc(N2CCNCC2)nc2c1sc1nc(-c3ccc(OCC)cc3)cc(CC)c12 [7-(4-Ethoxy-phenyl)-9-ethyl-2-(piperazin-1-yl)-4-n-propoxy-pyrido[3′,2′:4,5]thieno[3,2-d]pyrimidine] | < 0.002 |
| CCCOc1nc(N2CCNCC2)c2sc3nc(-c4ccc(OCC)cc4)cc(CC)c3c2n1 [7-(4-Ethoxy-phenyl)-9-ethyl-4-(piperazin-1-yl)-2-n-propoxy-pyrido[3′,2′:4,5]thieno[3,2-d]pyrimidine] | 0.002 to 0.05 |
| CCCCOc1ccc(Oc2ccc(-c3nc(C)c4c(n3)sc3c(OCC)nc(N5CCNCC5)nc34)cc2)cc1 [7-(4-[4-n-Butoxy-phenoxy]phenyl)-4-ethoxy-9-methyl-2-piperazin-1-yl-thieno[2,3-d:4,5-d′]dipyrimidine] | 0.002 to 0.05 |

Next, values leading:

| IC50 [µM] | Structure (SMILES) |
| --- | --- |
| < 0.002 | CCOc1nc(N2CCNCC2)nc2c1sc1nc(-c3ccc(-c4c(C)noc4C)cc3)nc(C)c12 [7-(4-[3,5-Dimethyl-isoxazol-4-yl]-phenyl)-4-ethoxy-9-methyl-2-piperazin-1-yl-thieno[2,3-d:4,5-d′]dipyrimidine] |
| 0.002 to 0.05 | CCOc1nc(N2CCNCC2)nc2c1sc1nc(-c3ccc(C(C)(C)C)cc3)nc(C)c12 [7-(4-tert-Butyl-phenyl)-4-ethoxy-9-methyl-2-piperazin-1-yl-thieno[2,3-d:4,5-d′]dipyrimidine] |
| < 0.002 | CCOc1nc(N2CCNCC2)nc2c1sc1nc(-c3ccc(-c4ccc(N)cc4)cc3)nc(C)c12 [7-(4′-Aminobiphen-4-yl)-4-ethoxy-9-methyl-2-piperazin-1-yl-thieno[2,3-d:4,5-d′]dipyrimidine] |
| 0.002 to 0.05 | CCOc1nc(N2CCNCC2)nc2c1sc1nc(Cc3ccccc3)nc(C)c12 [7-Benzyl-4-ethoxy-9-methyl-2-piperazin-1-yl-thieno[2,3-d:4,5-d′]dipyrimidine] |
| 0.002 to 0.05 | CCOc1nc(N2CCNCC2)nc2c1sc1nc(N3CCOCC3)c3c(c12)CCC3 [7-Ethoxy-2,3-dihydro-4-morpholino-9-piperazin-1yl-1H-cyclopenta[4′,5′]pyrido[3′,2′:4,5]thieno[3,2-d]pyrimidine] |
| 0.002 to 0.05 | CCOc1nc(N2CCNCC2)nc2c1sc1nc(N3CCOCC3)c3c(c12)CCN(C)C3 [8-Ethoxy-3-methyl-5-morpholino-10-piperazin-1-yl-pyrimido[4′,5′:4,5]thieno[2,7]-1,2,3,4-tetrahydro-naphthyridine] |
| 0.002 to 0.05 | CCOc1nc(N2CCNCC2)nc2c1sc1nc(N3CCN(C)CC3)c3c(c12)CCCC3 [8-Ethoxy-5-(N-methyl-piperazin-1-yl)-10-piperazin-1-yl-pyrimido[4′,5′:4,5]thieno[2,3-c]-1,2,3,4-tetrahydro-isoquinoline] |
| 0.002 to 0.05 | CCOc1nc(N2CCNCC2)nc2c1sc1nc(-c3ccccc3)c3c(c12)CCCC3 [8-Ethoxy-5-phenyl-10-piperazin-1-yl-pyrimido[4′,5′:4,5]thieno[2,3-c]-1,2,3,4-tetrahydro-isoquinoline-hydrochloride] |
| 0.002 to 0.05 | CCOc1nc(N2CCNCC2)nc2c1sc1nc(N3CCCCC3)c3c(c12)CCCC3 [8-Ethoxy-5-piperidino-10-piperazin-1-yl-pyrimido[4′,5′:4,5]thieno[2,3-c]-1,2,3,4-tetrahydro-isoquinoline-hydrochloride] |
| 0.002 to 0.05 | CCOc1nc(N2CCNCC2)nc2c1sc1nc(-c3ccc(Cl)cc3)cc(C(F)F)c12 [9-Difluoromethyl-7-(4-chloro-phenyl)-4-ethoxy-2-piperazin-1-yl-pyrido[3′,2′:4,5]thieno[3,2-d]pyrimidine] |
| 0.002 to 0.05 | CCOc1nc(N2CCNCC2)nc2c1sc1nc(N3CCOCC3)c3c(c12)CCCCC3 [9-Ethoxy-6-morpholino-11-(piperazin-1-yl)-2,3,4,5-tetrahydro-1H-cyclohepta[4′,5′]pyrido[3′,2′:4,5]thieno[3,2-d]pyrimidine] |
| 0.002 to 0.05 | Cc1cc(-c2ccccc2)nc2sc3c(OC(C)C)nc(N4CCNCC4)nc3c12 [9-Methyl-7-phenyl-2-(piperazin-1-yl)-4-iso-propoxy-pyrido[3′,2′:4,5]thieno[3,2-d]pyrimidine] |
| 0.002 to 0.05 | Cc1cc(-c2ccccc2)nc2sc3c(N4CCNCC4)nc(OC(C)C)nc3c12 [9-Methyl-7-phenyl-4-(piperazin-1-yl)-2-iso-propoxy-pyrido[3′,2′:4,5]thieno[3,2-d]pyrimidine] |
| 0.002 to 0.05 | CCCc1nc(N2CCNCC2)c2sc3nc(-c4ccccc4)cc(C)c3c2n1 [9-Methyl-7-phenyl-4-(piperazin-1-yl)-2-n-propyl-pyrido[3′,2′:4,5]thieno[3,2-d]pyrimidine] |
| 0.002 to 0.05 | CCCOc1nc(N2CCNCC2)c2sc3nc(-c4ccccc4)cc(C)c3c2n1 [9-Methyl-7-phenyl-4-piperazin-1-yl-2-n-propoxy-pyrido[3′,2′:4,5]thieno[3,2-d]pyrimidine] |
| 0.002 to 0.05 | CCOc1nc(N2CCNCC2)nc2c1sc1nc(-c3ccc(C)cc3)cc(CC(C)C)c12 [9-iso-Butyl-4-ethoxy-7-(4-methyl-phenyl)-2-(piperazin-1-yl)-pyrido[3′,2′:4,5]thieno-[3,2-d]pyrimidine] |
| 0.002 to 0.05 | CCOc1nc(N2CCNCC2)c2sc3nc(-c4ccccc4)c4c(c3c2n1)CCCC4 [10-Ethoxy-5-phenyl-8-piperazin-1-yl-pyrimido[4′,5′:4,5]thieno[2,3-c]-1,2,3,4-tetrahydro-isoquinoline] |

System: TNFα release
Assay: LPS-induced TNFα release in diluted human blood (ELISA)
Type: cell-based
Conditions: LPS 1 μg/ml, human blood diluted 1:5, 24 h; read-out: IC50 value in the TNFα inhibitory assay
Excerpt: Isolated leukocytes can be stimulated for the release of cytokines in different ways. Lipopolysaccharides (LPS) are a stimulus for the investigation of the TNFα release. LPS is part of bacterial cell walls and is released when the bacteria are killed (by antibiotics or the natural immune system). LPS stimulates in particular the activity of phagocytizing leukocytes (tissue macrophages, granulocytes, monocytes) and causes the infiltration of leukocytes from the peripheral blood into the affected tissue. A cytokine of special significance for these mechanisms is TNFα which is secreted in large amounts by the affected cells. The main source are here monocytes and macrophages. TNFα initiates and prolongs the inflammatory process in cooperation with other mediators.
For the investigation of the effect on the LPS-induced TNFα release a method was used which was described by Marx, D., Tassabehji, M., Heer, S., Hüttenbrink, K.-B., and I. Szelenyi, Pulmonary Pharmacology & Therapeutics (2002) 15, 7-15. The method is briefly: Human blood was taken from various donors, rendered incoagulable by the addition of 10 mM Na citrate and diluted 1:5 with RPMI 1640 cell culture medium. The test substances were added to the blood samples at various concentrations. 15 min later, the leukocytes were stimulated by the addition of lipopolysaccharides (LPS) from Salmonella abortus equi at a final concentration of 1 μg/ml. After the incubation of the test batches at 37° C. and under 5% CO2 in a water-saturated air for 24 h, the blood was centrifuged and the TNFα concentration in the cell-free supernatant was accurately measured using a purchasable ELISA (BD Biosciences) according to the manufacturer's instructions.

| IC50 [µM] | Structure (SMILES) |
| --- | --- |
| < 2 | Cc1cc(-c2ccccc2)nc2sc3c(N4CCNCC4)nc(OCCO)nc3c12 [2-(2-Hydroxy-ethoxy)-9-methyl-7-phenyl-4-(piperazin-1-yl)-pyrido[3′,2′:4,5]thieno[3,2-d]pyrimidine] |
| < 2 | CCOc1nc(N2CCNCC2)c2sc3nc(C)c(Cc4ccc([N+](=O)[O-])cc4)c(C)c3c2n1 [2-Ethoxy-7,9-dimethyl-8-(4-nitro-benzyl)-4-(piperazin-1-yl)-pyrido[3′,2′:4,5]thieno[3,2-d]pyrimidine] |
| < 2 | CCOc1nc(N2CCNCC2)c2sc3nc(-c4ccc(OC)c(OC)c4)cc(C)c3c2n1 [2-Ethoxy-7-(3,4-dimethoxy-phenyl)-9-methyl-4-(piperazin-1-yl)-pyrido[3′,2′:4,5]thieno[3,2-d]pyrimidine] |
| < 2 | CCOc1nc(N2CCNCC2)c2sc3nc(C)cc(-c4ccccc4)c3c2n1 [2-Ethoxy-7-methyl-9-phenyl-4-(piperazin-1-yl)-pyrido[3′,2′:4,5]thieno[3,2-d]pyrimidine-hydrochloride] |
| < 2 | CCOc1nc(N2CCNCC2)nc2c1sc1nc(-c3ccc(C(N)=O)cc3)cc(C(F)(F)F)c12 [4-(4-Ethoxy-9-trifluoromethyl-2-piperazin-1-yl-pyrido[3′,2′:4,5]thieno[3,2-d]pyrimidin-7-yl)-benzamide trifluoroacetate] |
